What all share (format): cell-based
The target of assay [1] is T1, PPAR gamma (Homo sapiens, UniProt P37231).
T1 construct: expressed in transfected cells; host or cells: HEK293
T1 sequence (P37231 1-505): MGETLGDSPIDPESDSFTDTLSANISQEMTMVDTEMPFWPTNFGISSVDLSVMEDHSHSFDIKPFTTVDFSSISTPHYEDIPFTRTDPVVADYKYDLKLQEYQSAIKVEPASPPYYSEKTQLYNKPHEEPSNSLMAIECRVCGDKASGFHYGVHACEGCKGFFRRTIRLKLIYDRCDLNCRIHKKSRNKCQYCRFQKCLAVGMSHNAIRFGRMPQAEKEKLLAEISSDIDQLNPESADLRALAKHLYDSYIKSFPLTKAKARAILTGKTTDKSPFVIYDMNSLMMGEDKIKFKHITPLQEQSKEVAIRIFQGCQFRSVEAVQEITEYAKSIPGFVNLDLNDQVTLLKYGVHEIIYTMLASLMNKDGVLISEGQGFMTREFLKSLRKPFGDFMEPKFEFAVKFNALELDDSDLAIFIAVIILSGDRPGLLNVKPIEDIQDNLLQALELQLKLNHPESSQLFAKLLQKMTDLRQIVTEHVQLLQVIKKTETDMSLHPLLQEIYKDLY
In words: Full-length PPAR transcriptional activation assay (PPRE::Luciferase reporter, HEK293 cells), PPAR gamma. To be noted: transfected HEK293 cells (PPARγ2 plasmid), species of receptor not given. As to the method: (§1) HEK293 cells were seeded the day before transfection into 384-well plates at a cell density of 6,000 cells per well in 40 μl assay medium I (phenol red-free DMEM containing 4% charcoal-dextran stripped FBS, 1% Penicillin-Streptomycin and 1% GlutaMax-1). Then 25 ng of PPRE::Luciferase reporter plasmid, an expression plasmid (25 pg of PPARα, or 40 pg of PPARδ, or 75 pg of PPARγ2), and an appropriate amount of the plasmid pUC19 to bring the total DNA amount to 50 ng was added to 20 μl of phenol-red free DMEM and 150 nL of Fugene 6 and incubated for 30 minutes. The transfection mixtures were then added to the cells and incubated for three hours. 10 μl of test agents in 5% DMSO were then added to the cells and incubated at 37° C. for an additional 18 hours. Luciferase activity was then assayed by adding 25 μl/well of Britelite (Perkin Elmer) according to the manufacturer's protocol and relative light output was measured with an Analyst GT plate reader (Molecular Devices). All experimental points were done in triplicate and the assays were repeated at least 3 times.
(§2) HEK293 cells were seeded the day before transfection in […] dishes at a density of 9×10^6 cells/dish and incubated at 37° C., 10% CO2 for 16-24 hours. Then, […] of PPRE::Luciferase reporter plasmid, an expression plasmid (7.5 ng of PPARα, or 7.5 ng of PPARδ, or 75 ng of PPARγ2), and an appropriate amount of the plasmid pUC19 to bring the total DNA amount to […] were mixed with 54 μl of Fugene 6 in 2 mls of phenol red-free DMEM and incubated for 30 minutes. Transfection mixtures were then incubated with the cells for 18 hours. Cells were then replated into sterile, white TC treated 384-well assay plates at a cell density of 24×10^3 cells/well in 40 μl of assay medium II (phenol-red free DMEM containing 3% charcoal/dextran-stripped FBS, 1% Penicillin-Streptomycin and 1% GlutaMax-1) and incubated at 37° C. for 6 hours. 10 μl of test agents in 5% DMSO were then added to the cells and incubated at 37° C. for an additional 18 hours. Luciferase activity was then assayed by adding 30 μl/well of Britelite (Perkin Elmer) according to the manufacturer's protocol and relative light output was measured with an Analyst GT plate reader (Molecular Devices). All experimental points were done in triplicate and the assays were repeated 3 times.

For assay [2], the target named is T2, PPAR alpha (Homo sapiens, UniProt Q07869).
T2 construct: expressed in transfected cells; host or cells: HEK293
T2 sequence (Q07869 1-468): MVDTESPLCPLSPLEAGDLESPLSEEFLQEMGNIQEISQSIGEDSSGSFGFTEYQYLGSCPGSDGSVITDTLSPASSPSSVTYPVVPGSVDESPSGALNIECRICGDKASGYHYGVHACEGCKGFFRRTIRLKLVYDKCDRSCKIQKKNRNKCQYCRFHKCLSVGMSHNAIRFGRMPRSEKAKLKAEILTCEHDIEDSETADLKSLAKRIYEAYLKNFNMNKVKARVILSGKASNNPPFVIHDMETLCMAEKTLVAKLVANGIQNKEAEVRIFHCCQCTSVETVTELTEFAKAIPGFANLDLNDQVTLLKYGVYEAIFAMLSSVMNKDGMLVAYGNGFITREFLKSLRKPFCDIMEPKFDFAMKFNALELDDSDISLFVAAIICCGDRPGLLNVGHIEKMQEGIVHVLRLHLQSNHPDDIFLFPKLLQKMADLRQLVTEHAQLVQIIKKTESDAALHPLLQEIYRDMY
In words: Full-length PPAR transcriptional activation assay (PPRE::Luciferase reporter, HEK293 cells), PPAR alpha. To be noted: transfected HEK293 cells, species of receptor not given. As to the method: as §1, §2

The target of assay [3] is T3, PPAR delta (Homo sapiens, UniProt Q03181).
T3 construct: expressed in transfected cells; host or cells: HEK293
T3 sequence (Q03181 1-441): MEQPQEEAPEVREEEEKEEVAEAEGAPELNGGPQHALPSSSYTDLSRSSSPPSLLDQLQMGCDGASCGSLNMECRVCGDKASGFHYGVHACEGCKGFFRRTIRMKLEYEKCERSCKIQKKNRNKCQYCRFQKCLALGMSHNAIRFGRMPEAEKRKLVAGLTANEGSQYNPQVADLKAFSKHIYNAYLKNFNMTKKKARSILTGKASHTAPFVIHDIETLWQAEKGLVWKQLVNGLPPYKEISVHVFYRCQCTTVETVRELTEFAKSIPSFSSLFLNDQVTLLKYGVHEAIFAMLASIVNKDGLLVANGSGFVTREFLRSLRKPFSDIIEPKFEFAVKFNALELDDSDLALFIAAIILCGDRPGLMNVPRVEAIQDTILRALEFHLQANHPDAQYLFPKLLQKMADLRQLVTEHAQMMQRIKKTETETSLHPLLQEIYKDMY
The assay is described as follows: Full-length PPAR transcriptional activation assay (PPRE::Luciferase reporter, HEK293 cells), PPAR delta. To be noted: transfected HEK293 cells, species of receptor not given. As to the method:
as §1, §2
For orientation: Reporter assays use an easily measured gene product as a stand-in for the process of interest.

A value given as a limit tells only on which side of the number the result lay.

As for `CCc1cnc(N(CCCC2Oc3cc(CC(=O)O)ccc3CC2C)Cc2ccc(OC(F)(F)F)cc2)nc1` (single isomer, unassigned) [Example 18A, 2-(2-(3-((5-ethylpyrimidin-2-yl)(4-(trifluoromethoxy)benzyl)amino)propyl)-3-methylchroman-7-yl)acetic acid], the EC50 is ≤ 1000 nM in assay [1], > 1000 nM in assay [2] and ≤ 1000 nM in assay [3].
Consider `CCc1cnc(N(CCCC2Oc3cc(CC(=O)O)ccc3CC2C)Cc2ccc(OC(F)(F)F)cc2)nc1` (single isomer, unassigned) [Example 18B], for which the 50% effective concentration (EC50) in assay [1], in assay [2] and in assay [3] was ≤ 1000 nM throughout.
As for `CCc1cnc(N(CCCC2Oc3cc(CC(=O)O)ccc3CC2C)Cc2ccc(OC(F)(F)F)cc2)nc1` (single isomer, unassigned) [Example 18C], the EC50 in assay [1] is > 1000 nM; in assay [2], ≤ 1000 nM; in assay [3], ≤ 1000 nM.
With `CCc1cnc(N(CCCC2Oc3cc(CC(=O)O)ccc3CC2C)Cc2ccc(OC(F)(F)F)cc2)nc1` (single isomer, unassigned) [Example 18D], the figures for the EC50 in assay [1], in assay [2] and in assay [3] were ≤ 1000 nM, > 1000 nM and ≤ 1000 nM, respectively.
On to `CCc1cnc(N(CCCC2Oc3cccc(CC(=O)O)c3CC2C)Cc2ccc(OC(F)(F)F)cc2)nc1` (single isomer, unassigned) [Example 19A, 2-(2-(3-((5-ethylpyrimidin-2-yl)(4-(trifluoromethoxy)benzyl)amino)propyl)-3-methylchroman-5-yl)acetic acid], for which the EC50 in assay [1] is ≤ 1000 nM; in assay [2], > 1000 nM; in assay [3], ≤ 1000 nM.
`CCc1cnc(N(CCCC2Oc3cccc(CC(=O)O)c3CC2C)Cc2ccc(OC(F)(F)F)cc2)nc1` (single isomer, unassigned) [Example 19B, 2-(2-(3-((5-ethylpyrimidin-2-yl)(4-(trifluoromethoxy)benzyl)amino)propyl)-3-methylchroman-5-yl)acetic acid]: the figures for the EC50 in assay [1], in assay [2] and in assay [3] were ≤ 1000 nM, > 1000 nM and ≤ 1000 nM, respectively.
As for `CCc1cnc(N(CCCC2Oc3cccc(CC(=O)O)c3CC2C)Cc2ccc(OC(F)(F)F)cc2)nc1` (single isomer, unassigned) [Example 19C, 2-(2-(3-((5-ethylpyrimidin-2-yl)(4-(trifluoromethoxy)benzyl)amino)propyl)-3-methylchroman-5-yl)acetic acid], the values for the concentration giving a half-maximal response (EC50) in assay [1], in assay [2] and in assay [3] were ≤ 1000 nM, > 1000 nM and ≤ 1000 nM, respectively.
As to `CCc1cnc(N(CCCC2Oc3cccc(CC(=O)O)c3CC2C)Cc2ccc(OC(F)(F)F)cc2)nc1` (single isomer, unassigned) [Example 19D, 2-(2-(3-((5-ethylpyrimidin-2-yl)(4-(trifluoromethoxy)benzyl)amino)propyl)-3-methylchroman-5-yl)acetic acid], the values for the half-maximal effective concentration (EC50) in assay [1], in assay [2] and in assay [3] were ≤ 1000 nM, > 1000 nM and ≤ 1000 nM, respectively.
Regarding `CCc1cnc(N(CCCN2CCc3ccc(CC(=O)O)cc3C2)Cc2ccc(OC(F)(F)F)cc2)nc1` [Example 1, (2-{3-[(5-Ethyl-pyrimidin-2-yl)-(4-trifluoromethoxy-benzyl)-amino]-propyl}-1,2,3,4-tetrahydro-isoquinolin-7-yl)-acetic acid], the EC50 in assay [1] was ≤ 1000 nM; in assay [2], > 1000 nM; in assay [3], ≤ 1000 nM.
On to `CCc1cnc(N(CCCN2CCc3ccc(CC(=O)O)cc3C2)Cc2ccc(C(F)(F)F)cc2C(F)(F)F)nc1` [Example 2, (2-{3-[(2,4-Bis-trifluoromethyl-benzyl)-(5-ethyl-pyrimidin-2-yl)-amino]-propyl}-1,2,3,4-tetrahydro-isoquinolin-7-yl)-acetic acid], for which the concentration giving a half-maximal response (EC50) in assay [1] is ≤ 1000 nM; in assay [2], > 1000 nM; in assay [3], ≤ 1000 nM.
Take `CCc1cnc(N(CCN2CCc3ccc(CC(=O)O)cc3C2)Cc2ccc(OC(F)(F)F)cc2)nc1` [Example 3, (2-{2-[(5-Ethyl-pyrimidin-2-yl)-(4-trifluoromethoxy-benzyl)-amino]-ethyl}-1,2,3,4-tetrahydro-isoquinolin-7-yl)-acetic acid]: the EC50 is ≤ 1000 nM in assay [1], > 1000 nM in assay [2] and ≤ 1000 nM in assay [3].
As to `CCc1cnc(N(CCN2CCc3ccc(CC(=O)O)cc3C2)Cc2ccc(C(F)(F)F)cc2C(F)(F)F)nc1` [Example 4, (2-{2-[(2,4-Bis-trifluoromethyl-benzyl)-(5-ethyl-pyrimidin-2-yl)-amino]-ethyl}-1,2,3,4-tetrahydro-isoquinolin-7-yl)-acetic acid], the EC50 in assay [1] was ≤ 1000 nM; in assay [2], > 1000 nM; in assay [3], ≤ 1000 nM.
`CCc1cnc(N(CCCCN2CCc3ccc(CC(=O)O)cc3C2)c2ccc(OC(F)(F)F)cc2)nc1` [Example 5, (2-{4-[(5-Ethyl-pyrimidin-2-yl)-(4-trifluoromethoxy-phenyl)-amino]-butyl}-1,2,3,4-tetrahydro-isoquinolin-7-yl)-acetic acid]: the EC50 in assay [1], in assay [2] and in assay [3] was > 1000 nM throughout.
On to `CCc1cnc(N(CCCN2CCc3ccc(CC(=O)O)cc3C2)c2ccc(OC(F)(F)F)cc2)nc1` [Example 6, (2-{3-[(5-Ethyl-pyrimidin-2-yl)-(4-trifluoromethoxy-phenyl)-amino]-propyl}-1,2,3,4-tetrahydroisoquinolin-7-yl)-acetic acid], for which the EC50 in assay [1], in assay [2] and in assay [3] was > 1000 nM in each case.
Regarding `CCc1cnc(N(CCCN2CCc3ccc(CC(=O)O)cc3C2)c2ccc(C(F)(F)F)cc2)nc1` [Example 7, (2-[3-[(5-Ethyl-pyrimidin-2-yl)-(4-trifluoromethyl-phenyl)-amino]-propyl]-1,2,3,4-tetrahydroisoquinolin-7-yl)-acetic acid], the EC50 in assay [1], in assay [2] and in assay [3] was > 1000 nM throughout.

One may read the EC50 as the concentration needed to bring the measured effect to its halfway point. Low values mean greater potency, high ones weaker potency.

The record behind these values is patent publication US20070219193A1, “ALKYLAMINE-SUBSTITUTED BICYCLIC ARYL COMPOUNDS USEFUL AS MODULATORS OF PPAR” (KALYPSYS, INC, priority 2006, published 2007).
